Measured values taken from EP0908457B1, “3-(1,2-benzisothiazol- and isoxazol-5-Y1)-2,4(1H,3H)-pyrimidinedione or thione and 3-(1,2-benzisothiazol- and isoxazol-5-y1)-4(3H)-pyrimidinone or thione herbicidal agents” (BASF AKTIENGESELLSCHAFT, priority 1997, dated 1999).

Experiments:
[1] = test system: Echinochloa oryzoides (Ard.) Fritsch.; assay: Preemergence weed control under flooded paddy conditions, ECHORC (Watergrass (Calif.)); type: in vivo; conditions: preemergence weeds, flooded paddy, rated three to four weeks after treatment
[2] = test system: Cyperus iria; assay: Preemergence weed control under flooded paddy conditions, CYPIR (Rice Flatsedge); type: in vivo; conditions: preemergence weeds, flooded paddy, rated three to four weeks after treatment
[3] = test system: Cyperus serotinus, Rottb.; assay: Preemergence weed control under flooded paddy conditions, CYPSE (Flatsedge); type: in vivo; conditions: preemergence weeds, rated three to four weeks after treatment
[4] = test system: Sagittaria pygmaea, L.; assay: Preemergence weed control under flooded paddy conditions, SAGPY (Arrowhead (Pygmaea)); type: in vivo; conditions: preemergence weeds, flooded paddy, rated three to four weeks after treatment
[5] = test system: Oryza sativa, (L.) Tebonnet; assay: Rice tolerance to post-transplant applications under flooded paddy conditions (Example 187), ORYSAT (Rice, Tebonnet); conditions: rated three to four weeks after treatment
Further: meaning of each grade not given here.

| SMILES | herbicidal effect rating, ECHORC ([1]; Rate 0.0320 kg/ha) | herbicidal effect rating, ECHORC ([1]; Rate 0.0620 kg/ha) | herbicidal effect rating, ECHORC ([1]; Rate 0.1250 kg/ha) | herbicidal effect rating, ECHORC ([1]; Rate 0.2500 kg/ha) | herbicidal effect rating, CYPIR ([2]; Rate 0.0320 kg/ha) | herbicidal effect rating, CYPIR ([2]; Rate 0.0620 kg/ha) | herbicidal effect rating, CYPIR ([2]; Rate 0.1250 kg/ha) | herbicidal effect rating, CYPIR ([2]; Rate 0.2500 kg/ha) | herbicidal effect rating, CYPSE ([3]; Rate 0.0320 kg/ha) | herbicidal effect rating, CYPSE ([3]; Rate 0.0620 kg/ha) | herbicidal effect rating, CYPSE ([3]; Rate 0.1250 kg/ha) | herbicidal effect rating, CYPSE ([3]; Rate 0.2500 kg/ha) | herbicidal effect rating, SAGPY ([4]; Rate 0.0320 kg/ha) | herbicidal effect rating, SAGPY ([4]; Rate 0.0620 kg/ha) | herbicidal effect rating, SAGPY ([4]; Rate 0.1250 kg/ha) | herbicidal effect rating, SAGPY ([4]; Rate 0.2500 kg/ha) | herbicidal effect rating ORYSAT ([5]; Rate 0.0320 kg/ha) | herbicidal effect rating ORYSAT ([5]; Rate 0.0620 kg/ha) | herbicidal effect rating ORYSAT ([5]; Rate 0.1250 kg/ha) | herbicidal effect rating ORYSAT ([5]; Rate 0.2500 kg/ha) |
| --- | --- | --- | --- | --- | --- | --- | --- | --- | --- | --- | --- | --- | --- | --- | --- | --- | --- | --- | --- | --- |
| Cn1c(C(F)(F)F)cc(=O)n(-c2ccc3snc(C(=O)NS(=O)(=O)CCl)c3c2)c1=O [Example 334, 1,2-Benzisothiazole-3-carboxamide, N-[(chloromethyl)sulfonyl]-5-[3,6-dihydro-3-methyl-2,6-dioxo-4-(trifluoromethyl)-1(2H)-pyrimidinyl]-] | 0.0 | 0.0 | 0.0 | 3.0 | 3.0 | 5.0 | 6.0 | 6.0 | 0.0 | 0.0 | 2.0 | 2.0 | 0.0 | 0.0 | 4.0 | 4.0 | 0.0 | 0.0 | 3.0 | 3.0 |
| CC(Oc1ccccc1-c1nsc2ccc(-n3c(=O)cc(C(F)(F)F)n(C)c3=O)cc12)C(=O)NS(C)(=O)=O (stereo not drawn) [Example 335, Propionamide, 2-{o-{5-[3,6-dihydro-3-methyl-2,6-dioxo-4-(trifluoromethyl)-1(2H)-pyrimidinyl]-1,2-benzisothiazol-3-yl}phenoxy}-N-(methylsulfonyl)-] | 6.0 | 7.0 | 7.0 | 9.0 | 0.0 | 0.0 | 2.0 | 2.0 | 0.0 | 0.0 | 6.0 | 6.0 | 0.0 | 0.0 | 4.0 | 4.0 | 3.0 | 4.0 | 5.0 | 7.0 |
| Cn1c(C(F)(F)F)cc(=O)n(-c2ccc3snc(C(=O)CBr)c3c2)c1=O [Example 337, 2,4(1H,3H)-Pyrimidinedione, 3-[3-(bromoacetyl)-1,2-benzisothiazol-5-yl]-1-methyl-6-(trifluoromethyl)-] | 2.0 | 2.0 | 6.0 | 6.0 | 0.0 | 0.0 | 6.0 | 9.0 | 0.0 | 0.0 | 0.0 | 9.0 | 0.0 | 0.0 | 0.0 | 3.0 | 3.0 | 3.0 | 3.0 | 3.0 |
